Results on 19 molecules are retold here after patent US4603139A, “Bicycle compounds, processes for their preparation and pharmaceutical formulations containing compounds” (Burroughs Wellcome Co., priority 1981, dated 1986).

The subject of data set [1] is right ventricular papillary muscle. The data set can be described thus: in vitro inotropic activity (isolated right ventricular papillary muscle). In kind it is cell-based, guinea-pig. The following applies: 75% increase in basal contractile force (Fc), carazolol 5×10^-8 M present, 34° C., cumulative additions; for EC75: Cavia porcellus, read-out: Potency for 75% increase Fc lying within the range. On the procedure: The heart was rapidly excised and washed with Krebs-Henesleit solution containing the β-adrenoceptor antagonist carazolol (5×10^-8 M) and gassed with 95% O2 : 5% CO2 at 34° C. The heat was transferred to a petri dish containing the same buffer kept at a constant temperature (34° C.) throughout the dissection. Fresh buffer was used for each dissection and washings were discarded after use. A single right ventricular papillary muscle was employed from each heart; the tendinous end ligated to a stainless steel hook and the lower end ligated and cut away from the ventricle wall and attached to a perspex clamp such that the tissue was in contact with a platimum punctate electrode. The stainless steel hook was suspended from a Grass FT.03 transducer which recorded isometric tension. The preparation was placed in a 20 ml pyrex organ bath containing buffer gassed with 95% O2 : 5% CO2 and maintained at 34° C. 500 mg loading tension was applied to the preparation. Stimulation was effected by rectangular pulses of Imsec duration at 1.5 Hz at 30% above the threshold voltage (1-5 volts) by a SRI stimulator. The transducer inputs were coupled to a potentiometric recording device by a 6-channel Grass transducer coupler. After 90 minutes, preparations unable to sustain uniform contractions beyond this period were rejected.

The test system of data set [2] is myocardial phosphodiesterase. Conditions: Diederan and Wiesenberger, 1981; cited from earlier work.
The test system of data set [3] is anaesthetised, open-chest beagles. In words: in vivo inotropic and vasodilatory activity. Conditions: Canis lupus familiaris, bolus intravenous, 0.003-3.0 mg/kg; for ED50: increase in dp/dt of left ventricular pressure; for ED30: vasodilatory activity. As for the experimental part: The compounds of Examples 1,2 and 21 were tested in comparison with amrinone and […]. […] This is accompanied by a dose-related increase in aortic blood flow, and a fall in systemic blood pressure (see Table below).

For data set [4], the system named is myocardial β-adrenoceptors. The following applies: Brutsaert et al 1982; Pouleur et al 1982; cited from earlier work.
Another data set relates to phosphodiesterase. The data set can be described thus: phosphodiesterase inhibitory activity. The class given is biochemical. Conditions: 100 μM, 1 mM and 10 mM; 3H-cAMP 5 uM; guinea pig heart homogenate; 37° C., 30 minutes. As for the experimental part: The determination of phosphodiesterase inhibitory activity was effected by a procedure based on that of Thompson and Appleman (Biochme., 10, 311 (1971)). ^3 H-cAMP (5 uM) is incubated at 37° C. for 30 minutes with the 1000Xg supernatent of a 10% (w/v) homogenate of guinea pig heart in 50 mM-Tris/HCL pH7+5 mM-mgCI2 in either the presence or the absence of the compound of Example 21 which, in the former case, is dissolved in Tris buffer to give final concentrations of 100 uM, 1 mM and 10 mM. Phosphodiesterase enzyme in the homogenate hydrolyses ^3 H-cAMP to ^3 H-5'-AMP which is further converted to ^3 H-adenosine by a 5'-nucleotidase added to the incubation mixture. After a period of incubation unchanged ^3 H-cAMP is removed by adding ion exchange resin to the mixture and centrifuging. The ^3 H in the supernatent is assayed by liquid scintillation counting and gives a quantitative measure of adenosine formation (i.e. cAMP hydrolysis). Comparison of the ^3 H-adenosine formed in the presence and absence of test compound gives a measure of the PDE-inhibitory activity of the compound.

Another data set concerns ischaemic heart. The data set can be described thus: ventricular vulnerability to arrythmias in the ischaemic heart. In kind it is in vivo.
The subject of a further data set is myocardial injury. In words: myocardial injury following selective ligation of the coronary artery in vivo.
Data set [5] has as its system ADP-induced platelet aggregation. The data set can be described thus: in vitro inhibition of platelet aggregation. The class given is cell-based, rhesus monkey. The following applies: Macaca mulatta, 1 min, platelet-rich plasma, 37° C., read-out: ID50 (dose causing 50% inhibition of platelet aggregation). On the procedure: Blood was freshly collected into siliconized (Siloclad; Clay Adams) plastic (Sterlin Ltd.) tubes containing trisodium citrate (3.15%; 0.1 volume with 0.9 volume blood) and centrifuged (200 g for 15 min) at room temperature. The platelet-rich plasma (PRP) was withdrawn into plastic containers and kept at room temperature. Inhibition of platelet aggregation was determined in a Born-type aggregometer by incubating aliquots (0.5 ml) of the PRP for 1 min at 37° C. with or without compound A prior to addition of sufficient adenosine diphosphate (ADP). Dose-inhibition curves were constructed for each compound and the ID50 (dose causing 50% inhibition) was calculated as the dose required to reduce the aggregation to 50% of its control amplitude. The ID50 for compound A is 1 mg/ml (approximately).

For data set [6] the test system is unchanged. The data set can be described thus: ex vivo inhibition of platelet aggregation. The class given is in vivo. Conditions: Macaca mulatta, iv, anaesthetised rhesus monkey, read-out: effective dose causing 50% inhibition of aggregation. As for the experimental part: Rhesus monkeys of both sexes (7.3-9 kg, body weight) were sedated with phencyclidine, subsequently anaesthetised with thiopentone and maintained with sodium pentobarbitone. Catheters were placed in the left femoral artery to record blood pressure and in the left femoral vein for administration of drugs. A further catheter was placed in the contralateral femoral artery for the removal of blood samples. Heart rate was recorded from ECG (standard lead II). A left ventricular catheter was introduced via the left carotid artery to measure left ventricular pressure. […] Rectal temperature of the anaesthetised monkey was maintained at 37°-38° C. via a heated table-pad.
Blood samples (3 ml) were withdrawn into syringes containing trisodium citrate (0.315% w/v final concentration), and spun for […]. The platelet rich-plasma was transferred to a Born-type aggregometer and incubated for 1 min (at 37° C.) prior to the addition of sufficient ADP to induce sub-maximal (1.5-3 μM) or near maximal (8-12 μM) aggregation. Inhibition of aggregation was calculated with reference to at least 2 control samples prior to intravenous infusion of compound A. The sequence of administration of compound A was randomized between experiments. The effective dose of compound A which caused 50% inhibition of aggregation is 1.0 mg/kg i.v. (approximately).

Values after ≈ are worked out from the molar mass of the structure shown. Where a name gives a salt, the structure may show the parent alone.

As to `COc1ccc(-c2nc3cnccc3[nH]2)c([S+](C)[O-])c1` (stereo not drawn) [Example 22, 2-(2-Methylsulphinyl-4-methoxyphenyl)-1H-imidazo[4,5-c]pyridine hydrochloride], the EC75 in data set [1] was greater than 1000 µM.

As for `COc1cc([S+](C)[O-])ccc1-c1nc2ncccc2[nH]1` (stereo not drawn) [Vardax, 2-[(2-methoxy-4-methylsulphinyl)phenyl]-1H-imidazo[4,5-b]pyridine, reference compound], the “inhibition of myocardial phosphodiesterase” value in data set [2] was “effective inhibitor of myocardial phosphodiesterase”. In data set [3], this molecule had an ED50 of 1 mg/kg and an ED30 of 2.11 mg/kg. Moreover, the “contribution of myocardial β-adrenoceptor stimulation to positive inotropic stimulation” value in data set [4] was “at least part of the positive inotropic stimulation”.

Regarding `COc1cc(-c2nc3cnccc3[nH]2)cc(OC)c1OC` [Example 3, 2-(3,4,5-trimethoxyphenyl)-1H-imidazo[4,5-c]pyridine dihydrochloride], the EC75 in data set [1] was greater than 1000 µM.

For `COc1ccccc1-c1nc2cnccc2[nH]1` [Example 7, 2-(2-methoxyphenyl)-1H-imidazo[4,5-c]pyridine hydrochloride], the EC75 in data set [1] lay within 100 to 1000 µM.

With `COc1ccc(-c2nc3cnccc3[nH]2)cc1OC` [Example 8, 2-(3,4-dimethoxyphenyl)-1H-imidazo[4,5-c]pyridine dihydrochloride], the EC75 in data set [1] was in the range of 10 to 100 µM.

On to `COc1cc([S+](C)[O-])ccc1-c1nc2cnccc2[nH]1.Cl` (stereo not drawn) [Example 23, 2-(2-Methoxy-4-methylsulphinylphenyl)-1H-imidazo[4,5-c]pyridine hydrochloride], for which the “Potency for 75% increase Fc lying within the range” value in [1] is 10^-4 -10^-3 M.

With `COc1cc(Cl)ccc1-c1nc2cnccc2[nH]1` [Example 10, 2-(2-methoxy-4-chlorophenyl)-1H-imidazo[4,5-c]pyridine hydrochloride], the EC75 in data set [1] fell in the range of 10 to 100 µM.

Take “2-(2-methylsulphinyl)-1H-imidazo[4,5-c]pyridine hydrochloride [Example 50]”: in data set [1], the “Potency for 75% increase Fc lying within the range” value is > 10^-3 M.

With `COc1ccc(-c2nc3cnccc3[nH]2)cc1.Cl.Cl` [Example 2, 2-(4-Methoxyphenyl)-1H-imidazo[4,5-c]pyridine dihydrochloride], in data set [3], the ED50 was determined as 2 mg/kg and the ED30 was 5.1 mg/kg.

On to `COc1cc(S(C)(=O)=O)ccc1-c1nc2cnccc2[nH]1` [Example 32, 2-(2-Methoxy-4-methylsulphonylphenyl)-1H-imidazo[4,5-c]pyridine], for which, in [1], the EC75 lay within 100 to 1000 µM.

`COc1ccc(-c2nc3c[n+]([O-])ccc3[nH]2)c(OC)c1` [Example 38, 2-(2,4-Dimethoxyphenyl)-1H-imidazo[4,5-c]pyridineN^5-oxide hydrate]: in [1], the EC75 was greater than 1000 µM.

Turning to `COc1ccc(-c2nc3ccncc3n2C)c(OC)c1` [Example 40, 3-Methyl-2-(2,4-dimethoxyphenyl)-1H-imidazo[4,5-c]pyridine], the EC75 in [1] was greater than 1000 µM.

Turning to `COc1cc([S+](C)[O-])ccc1-c1nc2cnccc2[nH]1` (stereo not drawn) [Example 21, 2-(2-Methoxy-4-methylsulphinylphenyl)-1H-imidazo[4,5-c]pyridine], the PDE inhibitory activity result in the data set with phosphodiesterase was “no PDE inhibitory activity”. For the same molecule, the “effect on ventricular vulnerability to arrythmias” value with ischaemic heart is on record as “does not increase ventricular vulnerability to arrythmias”. The “effect on myocardial injury” value with myocardial injury was “does not exacerbate myocardial injury”. Besides, the ED50 in data set [3] was 0.063 mg/kg; in data set [6], roughly 1 mg/kg. In addition, in data set [3], the ED30 stood at 0.19 mg/kg. Moreover, in [5], the IC50 was roughly 1000 µg/mL (≈ 3.48 mM). Further, the EC75 in data set [1] was in the range of 100 to 1000 µM.

In [3], `Nc1cc(-c2ccncc2)c[nH]c1=O` [Amrinone, reference compound] had an ED50 of 1 mg/kg and an ED30 of 2 mg/kg.

For the molecule `COc1ccc(-c2nc3cnccc3n2C)c(OC)c1` [Example 41, 1-Methyl-2-(2,4-dimethoxyphenyl)-1H-imidazo[4,5-c]pyridine], the EC75 in data set [1] was greater than 1000 µM.

Take `COc1ccc(-c2nc3cnccc3[nH]2)cc1SC` [Example 34, 2-(3-Methylthio-4-methoxyphenyl)-1H-imidazo-[4,5-c]pyridine dihydrochloride]: the EC75 in [1] is 100 to 1000 µM.

On to `CSc1ccccc1-c1nc2cnccc2[nH]1` [Example 29, 2-(2-methylthiophenyl)-1H-imidazo[4,5-c]pyridine hydrochloride], for which the EC75 in [1] was in the range of 100 to 1000 µM.

Regarding `COc1ccc(-c2nc3cnccc3[nH]2)c(OC)c1` [Example 1, 2-(2,4-Dimethoxyphenyl)-1H-imidazo[4,5-c]pyridine], in data set [3], the ED50 was 0.13 mg/kg and the ED30 was 0.24 mg/kg. Also, the EC75 in data set [1] fell in the range of 100 to 1000 µM.

As for `COc1ccc(-c2nc3cnccc3[nH]2)cc1[S+](C)[O-]` (stereo not drawn) [Example 35, 2-(3-Methylsulphinyl-4-methoxyphenyl)-1H-imidazo[4,5-c]pyridine], the EC75 in [1] was greater than 1000 µM.
